{"source": "patent US7781596B1", "about": "“Substituted 2-phenylbenzimidazoles, the production thereof and their use” (Abbott Laboratories, priority 1998, dated 2010)", "key": {"circulatory failure": {"system": "circulatory failure", "settings": "S. Cuzzocrea et al., Br. J. Pharmacol. 1997, 121, 1065-1074; cited from earlier work"}, "[1]": {"settings": "pH 5", "procedure": "(§1) If the measured substance is not in the form of a water-soluble salt, it was dissolved in the minimum amount of dimethyl sulfoxide and then diluted with water (final dimethyl sulfoxide concentration≦1%), after which the pH was again adjusted."}, "[2]": {"assay": "Determination of the solubility in water", "settings": "solution adjusted to pH 5 to 6 with sodium acetate, DMSO <=1% if not a water-soluble salt", "procedure": "as §1"}}, "note": "Where a name gives a salt, the structure may show the parent alone. Read-outs that look alike come from different tables or passages of the source.", "data": [{"smiles": "NC(=O)c1cccc(N)c1", "note": "[3-aminobenzamide]", "values": [{"measurement": "effects in a model of circulatory failure", "setting": "circulatory failure", "result": "protective effects"}]}, {"smiles": "CCN(CC)CCOc1ccc(-c2nc3c(C(N)=O)cccc3[nH]2)cc1", "note": "[Example 2, 2-(4-(2-(N,N-Diethylamino)eth-1-yloxy)phenyl)benzimidazole-4-carboxamide×2 hydrochloride]", "values": [{"measurement": "solubility in water", "setting": "[1]", "result": "> 0.5", "unit": "%"}]}, {"smiles": "COc1ccc(-c2nc3cccc(C(N)=O)c3[nH]2)cc1", "note": "[NU 1076]", "values": [{"measurement": "solubility in water", "setting": "[2]", "result": "< 0.01", "unit": "%"}]}]}
